Laboratory results: patent publication US20230399312A1, “SUBSTITUTED PYRIMIDINES AND METHODS OF USE” (THERAVANCE BIOPHARMA R&D IP, LLC, priority 2020, published 2023)

Key:
[1] = target: T1, recombinant human ALK5 (TGF-βR1) protein (Homo sapiens, UniProt P36897); assay: Biochemical ALK5 (TGF-βR1) assay to measure pKi (LANCE Ultra ULight kinase assay); details: apparent pKi, converted from pIC50 by Cheng-Prusoff
T1 construct: purchased Life Technologies PR9075A
T1 sequence (P36897 34-503): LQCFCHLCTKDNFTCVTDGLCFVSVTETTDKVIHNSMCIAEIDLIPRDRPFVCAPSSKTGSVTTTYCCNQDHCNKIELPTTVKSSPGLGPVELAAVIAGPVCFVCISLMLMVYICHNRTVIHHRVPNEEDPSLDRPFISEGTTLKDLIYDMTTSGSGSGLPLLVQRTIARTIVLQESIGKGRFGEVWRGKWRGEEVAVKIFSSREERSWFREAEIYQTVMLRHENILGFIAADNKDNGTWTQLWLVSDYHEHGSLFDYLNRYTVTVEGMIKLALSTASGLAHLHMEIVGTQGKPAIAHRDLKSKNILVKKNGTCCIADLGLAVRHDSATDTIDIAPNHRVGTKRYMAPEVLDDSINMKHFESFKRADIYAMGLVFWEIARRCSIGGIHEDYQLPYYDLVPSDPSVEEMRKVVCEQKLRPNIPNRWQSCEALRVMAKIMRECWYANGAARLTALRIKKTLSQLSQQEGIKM
Method in brief: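 Cmpd + enzyme, 60 min RT; ATP from 125 μM (5×) stock, 60 min 37 °C; stop 12 mM EDTA/Eu anti-pThr1342 Topo2α Ab (pH 7.0 buffer); TR-FRET 665 nm. DMSO = max, SD-208 = min signal. 4-PL pIC50 → pKi (Cheng-Prusoff).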

[2] = tested on: TGF-β-stimulated SMAD3 phosphorylation in BEAS-2B cells; assay: Cellular ALK5 potency assay, inhibition of TGF-β stimulated pSMAD3 formation in BEAS-2B cells; format: cell-based; details: Homo sapiens, pSMAD3, TGF-β 10 ng/mL, read-out: BEAS2B pIC50 (converted)
Method in brief: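 Cells were seeded overnight, rinsed into HEPES/BSA-supplemented HBSS, and dosed with serially diluted compound for 1 h at 37 °C, 5% CO2. TGF-β stimulation (10 ng/mL final) followed for 30 min, then lysis and AlphaLISA pSMAD3 measurement; potency reported as pIC50.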

Ki [1]	Structure (SMILES)	IC50 [2]
0.0398 to 0.316 nM	Cc1cccc(-c2nccc(Nc3ccnc(Nc4ccc(NS(C)(=O)=O)cc4)n3)n2)n1 [Compound 272, N-[4-[[4-[[2-(6-methyl-2-pyridyl)pyrimidin-4-yl]amino]pyrimidin-2-yl]amino]phenyl] methanesulfonamide]	25.1 to 158 nM
0.0398 to 0.316 nM	CNCCNS(=O)(=O)c1cccc(Nc2nccc(Nc3ccnc(-c4cccc(C)n4)n3)n2)c1 [Compound 273, N-[2-(methylamino)ethyl]-3-[[4-[[2-(6-methyl-2-pyridyl)pyrimidin-4-yl]amino]pyrimidin-2-yl]amino]benzenesulfonamide]	25.1 to 158 nM
0.0398 to 0.316 nM	Cc1cccc(-c2nccc(Nc3ccnc(Nc4ccc(CN5CCC(C(=O)OCC6CNC6)CC5)cc4)n3)n2)n1 [Compound 275, azetidin-3-ylmethyl 1-[[4-[[4-[[2-(6-methyl-2-pyridyl)pyrimidin-4-yl]amino]pyrimidin-2-yl]amino]phenyl]methyl] piperidine-4-carboxylate]	25.1 to 158 nM
0.0398 to 0.316 nM	Cc1cccc(-c2nccc(Nc3ccnc(Nc4ccc(NC(=O)N5CCN[C@@H](CO)C5)cc4)n3)n2)n1 [Compound 276, (3R)-3-(hydroxymethyl)-N-[4-[[4-[[2-(6-methyl-2-pyridyl)pyrimidin-4-yl]amino]pyrimidin-2-yl]amino]phenyl]piperazine-1-carboxamide]	25.1 to 158 nM
0.0398 to 0.316 nM	Cc1cccc(-c2nccc(Nc3ccnc(Nc4ccc5c(c4)CC4(CCNC4)C5)n3)n2)n1 (stereo not shown) [Compound 277, N2-(1,3-dihydrospiro[indene-2,3′-pyrrolidin]-5-yl)-N4-(2-(6-methylpyridin-2-yl)pyrimidin-4-yl)pyrimidine-2,4-diamine]	25.1 to 158 nM
0.0398 to 0.316 nM	Cc1cccc(-c2nccc(Nc3ccnc(Nc4ccc(CN5C[C@H]6C[C@@H]5CN6)cc4)n3)n2)n1 [Compound 279, N2-[4-[[(1R,4R)-2,5-diazabicyclo[2.2.1]heptan-2-yl]methyl]phenyl]-N4-[2-(6-methyl-2-pyridyl)pyrimidin-4-yl]pyrimidine-2,4-diamine]	25.1 to 158 nM
0.0398 to 0.316 nM	Cc1cccc(-c2nccc(Nc3ccnc(Nc4ccc(CC5CNC5)cc4)n3)n2)n1 [Compound 280, N2-[4-(azetidin-3-ylmethyl)phenyl]-N4-[2-(6-methyl-2-pyridyl)pyrimidin-4-yl]pyrimidine-2,4-diamine]	25.1 to 158 nM
0.398 to 3.16 nM	Cc1cccc(-c2nccc(Nc3ccnc(Nc4ccc(N5CCOCC5)cn4)n3)n2)n1 [Compound 281, N4-[2-(6-methyl-2-pyridyl)pyrimidin-4-yl]-N2-(5-morpholino-2-pyridyl)pyrimidine-2,4-diamine]	25.1 to 158 nM
0.0398 to 0.316 nM	Cc1cccc(-c2nccc(Nc3ccnc(Nc4cccc(NC(=O)C5CCN(C6CCN(C)CC6)CC5)c4)n3)n2)n1 [Compound 282, 1-(1-methyl-4-piperidyl)-N-[3-[[4-[[2-(6-methyl-2-pyridyl)pyrimidin-4-yl]amino]pyrimidin-2-yl]amino]phenyl]piperidine-4-carboxamide]	25.1 to 158 nM

Continued, molecule first:

Structure (SMILES)	Ki [1]	IC50 [2]
COC(=O)[C@@H]1CN(Cc2ccc(Nc3nccc(Nc4ccnc(-c5cccc(C)n5)n4)n3)cc2)CCN1 [Compound 254, methyl (2S)-4-[[4-[[4-[[2-(6-methyl-2-pyridyl)pyrimidin-4-yl]amino]pyrimidin-2-yl]amino]phenyl]methyl] piperazine-2-carboxylate]	0.0398 to 0.316 nM	≤ 20 nM
Cc1ccc(O)cc1-c1nccc(Nc2ccnc(Nc3ccc(N4CCC(N5CCN(C)CC5)CC4)cc3)n2)n1 [Compound 255, 4-methyl-3-(4-((2-((4-(4-(4-methylpiperazin-1-yl)piperidin-1-yl)phenyl)amino)pyrimidin-4-yl)amino)pyrimidin-2-yl)phenol]	0.398 to 3.16 nM	25.1 to 158 nM
Cc1cccc(-c2nccc(Nc3ccnc(Nc4nc(C(=O)OCC5CNC5)cs4)n3)n2)n1 [Compound 256, azetidin-3-ylmethyl 2-[[4-[[2-(6-methyl-2-pyridyl)pyrimidin-4-yl]amino]pyrimidin-2-yl]amino]thiazole-4-carboxylate]	0.398 to 3.16 nM	200 to 1260 nM
Cc1cccc(-c2nccc(Nc3ccnc(Nc4cccc(C(=O)O[C@H]5CCNC5)c4)n3)n2)n1 [Compound 257, [(3S)-pyrrolidin-3-yl] 3-[[4-[[2-(6-methyl-2-pyridyl)pyrimidin-4-yl]amino]pyrimidin-2-yl]amino]benzoate]	0.398 to 3.16 nM	25.1 to 158 nM
Cc1cccc(-c2nccc(Nc3ccnc(Nc4ccc(C(=O)OC5CNC5)s4)n3)n2)n1 [Compound 258, azetidin-3-yl 5-[[4-[[2-(6-methyl-2-pyridyl)pyrimidin-4-yl]amino]pyrimidin-2-yl]amino]thiophene-2-carboxylate]	0.0398 to 0.316 nM	25.1 to 158 nM
Cc1cccc(-c2nccc(Nc3ccnc(Nc4ccc(NCCN)cc4)n3)n2)n1 [Compound 259, N2-[4-(2-aminoethylamino)phenyl]-N4-[2-(6-methyl-2-pyridyl)pyrimidin-4-yl]pyrimidine-2,4-diamine]	0.0398 to 0.316 nM	25.1 to 158 nM
Cc1cccc(-c2nccc(Nc3ccnc(Nc4cccc(C(=O)OC5CNC5)c4)n3)n2)n1 [Compound 260, azetidin-3-yl 3-[[4-[[2-(6-methyl-2-pyridyl)pyrimidin-4-yl]amino]pyrimidin-2-yl]amino]benzoate]	0.0398 to 0.316 nM	25.1 to 158 nM
CC(=O)N1CCN(c2ccc(Nc3nccc(Nc4ccnc(-c5cccc(C)n5)n4)n3)cc2)CC1 [Compound 261, 1-[4-[4-[[4-[[2-(6-methyl-2-pyridyl)pyrimidin-4-yl]amino]pyrimidin-2-yl]amino]phenyl]piperazin-1-yl]ethanone]	≤ 0.0316 nM	≤ 20 nM
Cc1cccc(-c2nccc(Nc3ccnc(Nc4ccc(CN5CC(C)(N(C)C)C5)cc4)n3)n2)n1 [Compound 262, N2-[4-[[3-(dimethylamino)-3-methyl-azetidin-1-yl]methyl]phenyl]-N4-[2-(6-methyl-2-pyridyl)pyrimidin-4-yl]pyrimidine-2,4-diamine]	0.0398 to 0.316 nM	25.1 to 158 nM
Cc1cccc(-c2nccc(Nc3ccnc(Nc4ccc(NCCN5C[C@@H](C)N[C@@H](C)C5)cc4)n3)n2)n1 [Compound 263, N4-[2-(6-methyl-2-pyridyl)pyrimidin-4-yl]-N2-[4-[2-[rac-(3S,5R)-3,5-dimethylpiperazin-1-yl]ethylamino]phenyl] pyrimidine-2,4-diamine]	0.0398 to 0.316 nM	25.1 to 158 nM
Cc1cccc(-c2nccc(Nc3ccnc(Nc4ccc(S(=O)(=O)N5CCN(C(C)(C)C)CC5)cc4)n3)n2)n1 [Compound 264, N2-[4-(4-tert-butylpiperazin-1-yl)sulfonylphenyl]-N4-[2-(6-methyl-2-pyridyl)pyrimidin-4-yl]pyrimidine-2,4-diamine]	0.0398 to 0.316 nM	25.1 to 158 nM
Cc1cccc(-c2nccc(Nc3ccnc(Nc4ccc(NC(=O)C5CCNCC5)c(C)c4)n3)n2)n1 [Compound 265, N-[2-methyl-4-[[4-[[2-(6-methyl-2-pyridyl)pyrimidin-4-yl]amino]pyrimidin-2-yl]amino]phenyl]piperidine-4-carboxamide]	0.0398 to 0.316 nM	≤ 20 nM
Cc1cccc(-c2nccc(Nc3ccnc(Nc4ccc(N5CCN(C)CC5)cn4)n3)n2)n1 [Compound 267, N2-[5-(4-methylpiperazin-1-yl)-2-pyridyl]-N4-[2-(6-methyl-2-pyridyl)pyrimidin-4-yl]pyrimidine-2,4-diamine]	0.398 to 3.16 nM	25.1 to 158 nM
COC(=O)[C@H]1CN(Cc2ccc(Nc3nccc(Nc4ccnc(-c5cccc(C)n5)n4)n3)cc2)CCN1 [Compound 268, methyl (2R)-4-[[4-[[4-[[2-(6-methyl-2-pyridyl)pyrimidin-4-yl]amino]pyrimidin-2-yl]amino]phenyl]methyl] piperazine-2-carboxylate]	0.0398 to 0.316 nM	≤ 20 nM
Cc1cccc(-c2nccc(Nc3ccnc(Nc4ccc(NC(=O)C5CCN(CCN(C)C)CC5)cc4)n3)n2)n1 [Compound 269, 1-[2-(dimethylamino)ethyl]-N-[4-[[4-[[2-(6-methyl-2-pyridyl)pyrimidin-4-yl]amino]pyrimidin-2-yl]amino]phenyl]piperidine-4-carboxamide]	0.0398 to 0.316 nM	200 to 1260 nM
Cc1cccc(-c2nccc(Nc3ccnc(Nc4ccc(S(=O)(=O)N5CCN(C)CC5)cc4)n3)n2)n1 [Compound 270, N2-[4-(4-methylpiperazin-1-yl)sulfonylphenyl]-N4-[2-(6-methyl-2-pyridyl)pyrimidin-4-yl]pyrimidine-2,4-diamine]	0.0398 to 0.316 nM	25.1 to 158 nM
CNC(=O)[C@@H]1CN(Cc2ccc(Nc3nccc(Nc4ccnc(-c5cccc(C)n5)n4)n3)cc2)CCN1 [Compound 271, (2S)-N-methyl-4-[[4-[[4-[[2-(6-methyl-2-pyridyl)pyrimidin-4-yl]amino]pyrimidin-2-yl]amino]phenyl]methyl] piperazine-2-carboxamide]	0.0398 to 0.316 nM	25.1 to 158 nM
